Common to all, as to assay: isothermal titration calorimetry
What all share (type): binding

Assay [1] addresses T1, yYkt6ΔC (Saccharomyces cerevisiae, UniProt P36015, S176D).
T1 construct: gene YKT6; residues 1-195, C-terminal CCIIM motif removed; His6 tag; pET-M3C; E. coli BL21(DE3); not lipidated
T1 sequence (P36015 1-195 S176D): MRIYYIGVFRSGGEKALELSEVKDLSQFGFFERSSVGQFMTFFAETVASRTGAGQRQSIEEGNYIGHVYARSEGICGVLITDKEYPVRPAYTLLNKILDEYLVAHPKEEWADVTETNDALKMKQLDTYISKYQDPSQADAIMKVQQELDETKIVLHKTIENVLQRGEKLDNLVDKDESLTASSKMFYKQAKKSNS
Conditions: 50 mM Tris pH 8.0, 100 mM NaCl, 1 mM EDTA, 1 mM β-mercaptoethanol, 25 °C.

Assay [2] addresses T2, rYkt6ΔC (Rattus norvegicus, UniProt Q5EGY4, S174D).
T2 construct: gene Ykt6; residues 1-193, C-terminal CCAIM motif removed; His6 tag; pET-M3C; E. coli BL21(DE3); not lipidated
T2 sequence (Q5EGY4 1-193 S174D): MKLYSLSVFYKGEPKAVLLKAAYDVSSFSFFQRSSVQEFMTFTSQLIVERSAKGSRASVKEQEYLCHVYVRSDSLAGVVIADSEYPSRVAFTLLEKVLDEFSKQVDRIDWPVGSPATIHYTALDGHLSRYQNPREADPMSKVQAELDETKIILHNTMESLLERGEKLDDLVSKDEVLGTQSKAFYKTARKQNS
Conditions: 50 mM Tris pH 8.0, 100 mM NaCl, 1 mM EDTA, 1 mM β-mercaptoethanol, 25 °C.

Assay [3] deals with T3, yYkt6ΔC (Saccharomyces cerevisiae, UniProt P36015, Q57A/T46L).
T3 construct: gene YKT6; residues 1-195, C-terminal CCIIM motif removed; His6 tag; pET-M3C; E. coli BL21(DE3); not lipidated
T3 sequence (P36015 1-195 T46L/Q57A): T1 sequence (P36015 1-195 S176D) with T46L, Q57A, D176S

For assay [4], the target named is T4, yYkt6ΔC (Saccharomyces cerevisiae, UniProt P36015, T46L/Q57A/L169A).
T4 construct: gene YKT6; residues 1-195, C-terminal CCIIM motif removed; His6 tag; pET-M3C; E. coli BL21(DE3); not lipidated
T4 sequence (P36015 1-195 T46L/Q57A/L169A): T1 sequence (P36015 1-195 S176D) with T46L, Q57A, L169A, D176S
Conditions: 50 mM Tris pH 8.0, 100 mM NaCl, 1 mM EDTA, 1 mM β-mercaptoethanol, 25 °C.

The target in assay [5] is T5, yYkt6ΔC (Saccharomyces cerevisiae, UniProt P36015, T46L/Q57A/L172A).
T5 construct: gene YKT6; residues 1-195, C-terminal CCIIM motif removed; His6 tag; pET-M3C; E. coli BL21(DE3); not lipidated
T5 sequence (P36015 1-195 T46L/Q57A/L172A): T1 sequence (P36015 1-195 S176D) with T46L, Q57A, L172A, D176S
The conditions noted are these: 50 mM Tris pH 8.0, 100 mM NaCl, 1 mM EDTA, 1 mM β-mercaptoethanol, 25 °C.

The target in assay [6] is T6, rYkt6ΔC (Rattus norvegicus, UniProt Q5EGY4).
T6 construct: gene Ykt6; residues 1-193, C-terminal CCAIM motif removed; His6 tag; pET-M3C; E. coli BL21(DE3); not lipidated
T6 sequence (Q5EGY4 1-193): T2 sequence (Q5EGY4 1-193 S174D) with D174S

Assay [7] addresses T7, yYkt6ΔC (Saccharomyces cerevisiae, UniProt P36015).
T7 construct: gene YKT6; residues 1-195, C-terminal CCIIM motif removed; His6 tag; pET-M3C; E. coli BL21(DE3); not lipidated
T7 sequence (P36015 1-195): T1 sequence (P36015 1-195 S176D) with D176S
The conditions noted are these: 50 mM Tris pH 8.0, 100 mM NaCl, 1 mM EDTA, 1 mM β-mercaptoethanol, 25 °C.

Numbering of substitutions follows the chain as printed.

For `CCCCCCCCCCCCOP(=O)([O-])OCC[N+](C)(C)C` [DPC, dodecylphosphocholine], the no binding result at yYkt6ΔC [1] is “the phospho-mutant yYkt6ΔC-S176D could not bind DPC either”; on rYkt6ΔC [2], “ITC experiments showed that DPC could not bind to rYkt6ΔC-S174D mutant”; on yYkt6ΔC [4] it was “ITC measurements showed that these mutations disrupt the binding with DPC”; at yYkt6ΔC [5], “ITC measurements showed that these mutations disrupt the binding with DPC”; on yYkt6ΔC [7] it was “It turns out that DPC could not bind to yYkt6ΔC”. Moreover, the Kd was 33.3 µM at yYkt6ΔC [3] and 38.5 µM on rYkt6ΔC [6].

These data come from PMC10388204, “Different conformational dynamics of SNARE protein Ykt6 among yeast and mammals” (The Journal of Biological Chemistry, 2023).
